Laboratory results from US20050042354A1, “Antiradicals and fat compositions, foods, drinks, drugs or feeds containing the antiradicals” (priority 2001, published 2005).

Assay: Trolox relative activity in ORAC method (antiradical activity in serum)
Format: biochemical, human
Conditions: for Trolox relative activity: ORAC method, human blood serum, 60-μM 4-vinyl-2,6-dimethoxyphenol, 300-μM α-tocopherol
Procedure: 2) Trolox Relative Activity in ORAC Method
10 μl of a test substance in a designated concentration, or
6-hydroxy-2,5,7,8-tetramethylchroman-2-carboxylic acid (Trolox) solution is added to 10 μl of 200-fold diluted solution of human blood serum. Then, 180 μl of 3.73-mg/l β-phycoerythrin (β-PE) is added, and the mixture is preheated at 37° C. for 1 min. 10 μl of 80-mM 2,2′-azobis(2-amidinopropane)-dihydrochloride (AAPH) is then added, and the reaction is started at 37° C. For the dilution of the serum or reagents added, phosphate buffer (75 mM, pH 7.0) is used. As a control, this phosphate buffer is used in place of the test substance. Fluorescence intensity (Ex: 540 nm, Em: 565 nm) of the reactant is measured every 2 min after the start of the reaction, and the relationship between the fluorescence intensity (y-axis) and the time x-axis) is plotted on a graph. The area (S) enclosed by the obtained curve, x and y axes is calculated for the test substance, Trolox and the control. The antiradical activity of the test substance in the serum is calculated as a Trolox relative activity using the following equation. Trolox relative activity=(Test substance's S−Control's S)/(Trolox's S−Control's S)×(Trolox's concentration/Test substance's concentration) In this testing system, AAPH generates peroxyradicals, and the peroxyradicals oxidize the substrate β-PE, which results in a reaction to eliminate fluorescence of β-PE. Trolox is a derivative of water-soluble vitamin E, and is used as a standard substance of the antioxidation reaction in this testing system. These reaction substrate and standard substance are those used in an oxygen radical absorbance capacity (ORAC) method. The ORAC method is widely used to obtain antioxydation and antiradical activities of biological samples and natural materials as values relative to those of a standard substance, in an easy and accurate manner. (5) Rancimat Test

Row | SMILES | Trolox relative activity | Trolox relative activity in serum relative to α-tocopherol (in serum)
1 | C=Cc1cc(OC)c(O)c(OC)c1 [Example 7, 4-vinyl-2,6-dimethoxyphenol] | 0.58 | approximately 7 folds
2 | Cc1c(C)c2c(c(C)c1O)CC[C@@](C)(CCC[C@H](C)CCC[C@H](C)CCCC(C)C)O2 [compound 1, α-tocopherol, reference compound] | 0.08 | 
